Laboratory results reported in ChEMBL document CHEMBL5506000, “Design, synthesis and antibacterial evaluation of low toxicity amphiphilic-cephalosporin derivatives” (Eur J Med Chem, 2024).
In brackets after ≈: the same amount, converted by molar mass. Activity calls are given as the source filed them. The calls are words filed in the database; no cut-off is given here.

What was measured:
[1] = tested on: Staphylococcus aureus; test: Antibacterial activity against methicillin resistant Staphylococcus aureus; type: functional
[2] = tested on: Enterococcus faecalis; test: Antibacterial activity against Enterococcus faecalis ATCC 29212 by CLSI protocol based assay; type: functional
[3] = tested on: Staphylococcus aureus; test: Antibacterial activity against Staphylococcus aureus ATCC 29213 by CLSI protocol based assay; type: functional
[4] = tested on: Stenotrophomonas maltophilia; test: Antibacterial activity against Stenotrophomonas maltophilia ATCC 17808 by CLSI protocol based assay; type: functional
[5] = tested on: Escherichia coli; test: Antibacterial activity against Escherichia coli ATCC 25922 by CLSI protocol based assay; type: functional
[6] = Hemolytic activity in sheep RBC; type: toxicity, cell-based, Ovis aries, Erythrocyte; settings: sheep red blood cells (erythrocytes)
[7] = tested on: Cell membrane; test: Induction of cell membrane depolarization in Staphylococcus aureus assessed as increase in fluorescence intensity at 16 microg/ml by DiSC3(5) dye based assay; type: cell membranes; settings: dose 16.0 µg/ml
[8] = tested on: Cell membrane; test: Induction of inner membrane permeabilization in Staphylococcus aureus assessed as increase in fluorescence intensity at 16 microg/ml by PI staining based analysis; type: cell membranes; settings: dose 16.0 µg/ml
[9] = tested on: Cell membrane; test: Induction of cell membrane damage in Staphylococcus aureus assessed as increase in protein leakage; type: cell membranes
[10] = tested on: Staphylococcus aureus; test: Antibacterial activity against Staphylococcus aureus assessed as reduction in metabolic activity at sub-MIC; type: functional, organism-based
[11] = tested on: Staphylococcus aureus; test: Antibacterial activity against Staphylococcus aureus assessed as inhibition of metabolic activity at MIC; type: functional
[12] = tested on: Staphylococcus aureus; test: Drug resistance, ratio of MIC for Staphylococcus aureus measured after 7 days to MIC for Staphylococcus aureus; type: functional
[13] = tested on: Staphylococcus aureus; test: Drug resistance, ratio of MIC for Staphylococcus aureus measured after 20 days to MIC for Staphylococcus aureus; type: functional
[14] = tested on: Staphylococcus aureus; test: Antibacterial activity against Staphylococcus aureus measured after 20 days; type: functional; settings: 480 h, time 20 day
[15] = tested on: Staphylococcus aureus; test: Resistance development in 20 day passaged Staphylococcus aureus assessed as beta-lactam antibacterial activity; type: functional, organism-based
[16] = tested on: Staphylococcus aureus; test: Resistance development in 20 day passaged Staphylococcus aureus assessed as cefotaxime antibacterial activity; type: functional, organism-based
[17] = tested on: Staphylococcus aureus; test: Resistance development in 20 day passaged Staphylococcus aureus assessed as ampicillin antibacterial activity; type: functional, organism-based
[18] = tested on: Staphylococcus aureus; test: Resistance development in 20 day passaged Staphylococcus aureus assessed as ciprofloxacin antibacterial activity; type: functional, organism-based
[19] = tested on: Staphylococcus aureus; test: Resistance development in 20 day passaged Staphylococcus aureus assessed as levofloxacin antibacterial activity; type: functional, organism-based
[20] = Hemolytic activity in sheep RBC assessed as hemolysis rate at 1280 microg/ml relative to control; type: toxicity, cell-based, Ovis aries, Erythrocyte; settings: sheep red blood cells (erythrocytes), dose 1280 µg/ml, read-out: Activity
[21] = tested on: Staphylococcus aureus; test: Antibacterial activity against early exponential growth phase Staphylococcus aureus assessed as reduction in bacterial colony at 8 times of MIC measured at 8 to 24 hrs by time-kill kinetics assay; type: functional, organism-based; settings: time 8-24 hrs
[22] = tested on: Staphylococcus aureus; test: Post-antibiotic effect against Staphylococcus aureus at 1 times of MIC incubated for 1 hrs; type: functional
[23] = tested on: Staphylococcus aureus; test: Post-antibiotic effect against Staphylococcus aureus at 4 times of MIC incubated for 1 hrs; type: functional
[24] = tested on: Staphylococcus aureus; test: Antibacterial activity against Staphylococcus aureus measured after 3 to 6 hrs in presence of 50% plasma; type: functional, organism-based; settings: time 3-6 hrs
[25] = tested on: Staphylococcus aureus; test: Antibacterial activity against methicillin resistant Staphylococcus aureus clinical isolates assessed as 50% inhibition of bacterial growth; type: functional

Row | Compound | MIC [2] [µg/mL] | MIC [3] [µg/mL] | MIC [4] [µg/mL] | MIC [5] [µg/mL] | HC50 [6] [µg/mL] | further results
1 | CCCCCCN(Cc1ccc(-c2ccc(CN(CCCCCC)C(=O)[C@@H](N)CCCCN)cc2)cc1)C(=O)[C@@H](N)CCCCN.O=C(O)C(F)(F)F.O=C(O)C(F)(F)F.O=C(O)C(F)(F)F.O=C(O)C(F)(F)F |  |  |  |  |  | MIC [1]: 3.1 µg/mL
2 | CCCCCCNC(=O)c1cc[n+](CC2=C(C(=O)[O-])N3C(=O)[C@@H](NC(=O)/C(=N\OC)c4csc(N)n4)[C@H]3SC2)cc1.O=C(O)C(F)(F)F | 4 | 2 | 2 | 2 | > 1280 | 
3 | GENTAMICIN |  |  |  |  |  | Activity [7]: inactive; Activity [8]: inactive
4 | C[C@@H](O)[C@H]1C(=O)N2C(C(=O)O)=C(S[C@@H]3CN[C@H](C(=O)N(C)C)C3)[C@H](C)[C@H]12 [MEROPENEM] |  |  | 0.031 (≈ 0.0808 µM) | 0.031 (≈ 0.0808 µM) | > 1280 | 
5 | CCCCNC(=O)c1ccc[n+](CC2=C(C(=O)[O-])N3C(=O)[C@@H](NC(=O)/C(=N\OC(C)(C)C(=O)O)c4csc(N)n4)[C@H]3SC2)c1.O=C(O)C(F)(F)F | 128 | 32 | 0.5 | 1 | > 1280 | 
6 | CC[C@H](C)[C@H](NC(=O)CN)C(=O)NCC(=O)N[C@@H](C)C(=O)N[C@H](C(=O)N[C@@H](CC(C)C)C(=O)N[C@@H](CCCCN)C(=O)N[C@H](C(=O)N[C@@H](CC(C)C)C(=O)N[C@H](C(=O)N[C@H](C(=O)NCC(=O)N[C@@H](CC(C)C)C(=O)N1CCC[C@H]1C(=O)N[C@@H](C)C(=O)N[C@@H](CC(C)C)C(=O)N[C@H](C(=O)N[C@@H](CO)C(=O)N[C@@H](Cc1c[nH]c2ccccc12)C(=O)N[C@H](C(=O)N[C@@H](CCCCN)C(=O)N[C@@H](CCCNC(=N)N)C(=O)N[C@@H](CCCCN)C(=O)N[C@@H](CCCNC(=N)N)C(=O)N[C@@H](CCC(N)=O)C(=O)N[C@@H](CCC(N)=O)C(N)=O)[C@@H](C)CC)[C@@H](C)CC)[C@@H](C)O)[C@@H](C)O)C(C)C)C(C)C [MELITTIN] | 2 (≈ 0.703 µM) |  | 8 (≈ 2.81 µM) |  |  | Activity [7]: Active; Activity [8]: Active; Activity [9]: Active; Activity [10]: Active; inhibition (INH) [11]: ~100%
7 | CC(C)(O/N=C(\C(=O)N[C@@H]1C(=O)N2C(C(=O)[O-])=C(C[n+]3ccccc3)CS[C@H]12)c1csc(N)n1)C(=O)O [CEFTAZIDIME] | 128 (≈ 234 µM) | 16 (≈ 29.3 µM) | 0.063 (≈ 0.115 µM) | 0.063 (≈ 0.115 µM) | > 1280 | 
8 | CCCCCCNC(=O)c1ccc[n+](CC2=C(C(=O)[O-])N3C(=O)[C@@H](NC(=O)/C(=N\OC)c4csc(N)n4)[C@H]3SC2)c1.O=C(O)C(F)(F)F | 4 | 2 | 2 | 4 | > 1280 | 
9 | CCCCCCCCCCNC(=O)c1cc[n+](CC2=C(C(=O)[O-])N3C(=O)[C@@H](NC(=O)/C(=N\OC)c4csc(N)n4)[C@H]3SC2)cc1.O=C(O)C(F)(F)F | 4 | 1 | 8 | 8 | > 1280 | 
10 | CCn1cc(C(=O)O)c(=O)c2cc(F)c(N3CCNCC3)cc21 [NORFLOXACIN] |  |  |  |  |  | Ratio [12]: 16; Ratio [13]: 64; MIC [14]: 64 µg/mL (≈ 200 µM); Activity [15]: inactive; Activity [16]: inactive; Activity [17]: inactive; Activity [18]: inactive; Activity [19]: inactive
11 | CCCCCCCCNC(=O)c1cc[n+](CC2=C(C(=O)O)N3C(=O)[C@@H](NC(=O)/C(=N\OC)c4csc(N)n4)[C@H]3SC2)cc1.O=C([O-])C(F)(F)F | 2 | 1 | 4 | 8 | > 1280 | 
12 | CCCCCCCCNC(=O)c1ccc[n+](CC2=C(C(=O)[O-])N3C(=O)[C@@H](NC(=O)/C(=N\OC(C)(C)C(=O)O)c4csc(N)n4)[C@H]3SC2)c1.O=C(O)C(F)(F)F | 128 | 32 | 16 | 16 | > 1280 | 
13 | CCCCCCCCCCNC(=O)c1ccc[n+](CC2=C(C(=O)[O-])N3C(=O)[C@@H](NC(=O)/C(=N\OC(C)(C)C(=O)O)c4csc(N)n4)[C@H]3SC2)c1.O=C(O)C(F)(F)F | 128 | 32 | 64 | 32 | > 1280 | 
14 | CO/N=C(\C(=O)N[C@@H]1C(=O)N2C(C(=O)[O-])=C(COC(C)=O)CS[C@H]12)c1csc(N)n1.[Na+] [CEFOTAXIME SODIUM] | 16 | 1 | 2 | 2 | > 1280 | Activity [10]: Active; inhibition (INH) [11]: ~100%
15 | CCCCNC(=O)c1cc[n+](CC2=C(C(=O)[O-])N3C(=O)[C@@H](NC(=O)/C(=N\OC(C)(C)C(=O)O)c4csc(N)n4)[C@H]3SC2)cc1.O=C(O)C(F)(F)F | 128 | 64 | 1 | 4 | > 1280 | 
16 | CCCCCCNC(=O)c1cc[n+](CC2=C(C(=O)[O-])N3C(=O)[C@@H](NC(=O)/C(=N\OC(C)(C)C(=O)O)c4csc(N)n4)[C@H]3SC2)cc1.O=C(O)C(F)(F)F | 64 | 32 | 8 | 32 | > 1280 | 
17 | CCCCCCNC(=O)c1ccc[n+](CC2=C(C(=O)[O-])N3C(=O)[C@@H](NC(=O)/C(=N\OC(C)(C)C(=O)O)c4csc(N)n4)[C@H]3SC2)c1.O=C(O)C(F)(F)F | 128 | 32 | 4 | 4 | > 1280 | 
18 | CCCCCCCCNC(=O)c1cc[n+](CC2=C(C(=O)[O-])N3C(=O)[C@@H](NC(=O)/C(=N\OC(C)(C)C(=O)O)c4csc(N)n4)[C@H]3SC2)cc1.O=C(O)C(F)(F)F | > 128 | 32 | 64 | 32 | > 1280 | 
19 | CCCCCCCCCCNC(=O)c1ccc[n+](CC2=C(C(=O)[O-])N3C(=O)[C@@H](NC(=O)/C(=N\OC)c4csc(N)n4)[C@H]3SC2)c1.O=C(O)C(F)(F)F | 4 | 0.5 | 8 | 8 | > 1280 | hemolysis at 1280 microg/ml [20]: 12.7%
20 | CCCCNC(=O)c1cc[n+](CC2=C(C(=O)[O-])N3C(=O)[C@@H](NC(=O)/C(=N\OC)c4csc(N)n4)[C@H]3SC2)cc1.O=C(O)C(F)(F)F | 4 | 4 | 1 | 1 | > 1280 | 
21 | CN[C@H](CC(C)C)C(=O)N[C@H]1C(=O)N[C@@H](CC(N)=O)C(=O)N[C@H]2C(=O)N[C@H]3C(=O)N[C@H](C(=O)N[C@H](C(=O)O)c4cc(O)cc(O)c4-c4cc3ccc4O)[C@H](O)c3ccc(c(Cl)c3)Oc3cc2cc(c3O[C@@H]2O[C@H](CO)[C@@H](O)[C@H](O)[C@H]2O[C@H]2C[C@](C)(N)[C@H](O)[C@H](C)O2)Oc2ccc(cc2Cl)[C@H]1O [VANCOMYCIN] | 2 (≈ 1.38 µM) |  |  |  | > 1280 | Activity [21]: Active; PAE [22]: 0.67 h; PAE [23]: 1.37 h; Activity [24]: Active; Activity [7]: inactive
22 | CC[C@H]1OC(=O)[C@H](C)[C@@H](O[C@H]2C[C@@](C)(OC)[C@@H](O)[C@H](C)O2)[C@H](C)[C@@H](O[C@@H]2O[C@H](C)C[C@H](N(C)C)[C@H]2O)[C@](C)(O)C[C@@H](C)C(=O)[C@H](C)[C@@H](O)[C@]1(C)O [ERYTHROMYCIN] |  |  |  |  |  | MIC50 [25]: > 128 µg/mL
23 | CCCCNC(=O)c1ccc[n+](CC2=C(C(=O)[O-])N3C(=O)[C@@H](NC(=O)/C(=N\OC)c4csc(N)n4)[C@H]3SC2)c1.O=C(O)C(F)(F)F | 4 | 2 | 0.5 | 0.5 | > 1280 | 
24 | CCCCCCCCCCNC(=O)c1cc[n+](CC2=C(C(=O)[O-])N3C(=O)[C@@H](NC(=O)/C(=N\OC(C)(C)C(=O)O)c4csc(N)n4)[C@H]3SC2)cc1.O=C(O)C(F)(F)F | > 128 | 32 | 128 | 64 | > 1280 | 
